Where two headings read alike, the source gives them in different places.
Columns and labels:
[1] = Three-period crossover relative bioavailability study of methotrexate injectable solutions (Vibex device SC vs needle and syringe SC and IM); assay type: in vivo, human; details: for AUC(0-inf) / Tmax / AUC(0-t) / Cmax / half-life: human, plasma, sc, subcutaneous with Vibex device
Experimental: This was a randomized, open-label, 3-way crossover study involving 36 subjects. During the screening period, 1 of 4 MTX dose groups (10 mg, 15 mg, 20 mg, or 25 mg) were selected by the investigator for each subject based on the subject's current MTX dose at the time of enrollment and disease status (controlled RA vs. uncontrolled RA). […] One of six treatment sequences was possible as determined by the randomization schedule.
A total of approximately 200 ml blood was obtained from each subject over the course of the study.
Immediately following collection of each sample, each tube was gently inverted and placed in ice. Within 30 minutes of sample collection, the tubes were centrifuged at about 2000×G for 15 minutes at approximately 4° C. in order to separate the cells from the plasma. No aids for separation were used. The plasma was transferred with clean pipettes and placed in two polypropylene storage tubes in equal volumes. The storage tubes were labeled with the following information: protocol number, subject number, period number, relative time of sample, and analyte. The label was taped with clear tape to assure adherence of the label. The storage tubes were placed in a freezer at […] or below until they analyzed.
Briefly, in an ice water bath, 100 μL of the human K2EDTA plasma sample was placed in a 2-ml centrifuge tube. 10 μL of working standard solution and 10 μL of internal standard were added to the tubes. Afterwards, […] of 30% formic acid in water was added to the tubes and 0.2 ml of cold precipitation solution (acetonitrile) was added, vortexed and centrifuged. The supernatant was transferred to a 96-well plate for LC/MS/MS analysis. A volume of approximately 5 μL of the sample was injected into an LC/MS/MS system. The LC/MS/MS analysis was carried out with a Sciex API-4000 mass spectrometer coupled with a Shimadzu LC system. […] Calibration curves and quality control samples were included in each run. The ranges of the assay for both analyses were from 1 ng/ml to 1000 ng/ml, and the limit of quantification for both analyses was 1 ng/ml.
Concentration values that were reported as below the limit of quantification (BLQ) were treated as 0 for computing mean concentrations and in the concentration-time graphs. […] Concentrations in plasma were used as reported; but measurable concentrations observed after obtaining a BLQ result were excluded from analysis.
The Linear Up Log Down method (equivalent to the Linear Up/Log Down option in WinNonlin® Professional) was used in the computation of AUCs. The linear trapezoidal method was employed for any area where the concentration data was increasing (or constant) and the logarithmic trapezoidal method for any area where the concentration data was decreasing. Interpolation of concentration values was conducted using the linear interpolation rule for any time point surrounded by points of increasing (or constant) concentrations and the logarithmic interpolation rule for any time point surrounded by points of decreasing concentrations.
Pharmacokinetic parameters were calculated from the individual concentrations of MTX using noncompartmental methods. […] Secondary PK parameters calculated for each treatment were the following: time of maximum concentration (t . . . ), half-life (tin), Lambda z, and percent of area under the curve extrapolated.
Comparisons among treatments were evaluated by a mixed model analysis of the log-transformed, dose-normalized values of Cmax, AUC(0-t), and AUC(0-inf) with sequence, treatment, and treatment period as fixed effects and subject nested within sequence as a random effect. Using these models, the least-squares (LS) mean for the above PK parameters of each treatment were determined. The differences in LS means among treatments and the 90% confidence intervals (CIs) for the differences in the log-scale LS means among treatment were also obtained.

[2] = cited from earlier work; for average mean serum concentration: pediatric patients with juvenile rheumatoid arthritis

SMILES: CN(Cc1cnc2nc(N)nc(N)c2n1)c1ccc(C(=O)N[C@@H](CCC(=O)O)C(=O)O)cc1 [methotrexate, N-[4-[[(2,4-diamino-6-pteridinyl)methyl]methylamino]benzoyl]-L-glutamic acid]
- AUC(0-inf) ([1]; 10 mg, 10 mg single dose): ~1160 ng·h/mL
- Tmax ([1]; 10 mg, 10 mg single dose): 1.33 h
- AUC(0-t) ([1]; 10 mg, 10 mg single dose, read-out: AUC(0-24)): ~1150 ng·h/mL
- AUC(0-t) ([1]; 10 mg, 10 mg single dose, read-out: AUC(0-t)): ~1140 ng·h/mL
- Cmax ([1]; 10 mg, 10 mg single dose, subjects with rheumatoid arthritis): ~213 ng/mL
- AUC(0-inf) ([1]; 15 mg, 15 mg single dose): ~1980 ng·h/mL
- Cmax ([1]; 15 mg, 15 mg single dose): ~356 ng/mL
- Tmax ([1]; 15 mg, 15 mg single dose): ~1.25 h
- half-life ([1]; 15 mg, 15 mg single dose): ~3.68 h
- AUC(0-t) ([1]; 15 mg, 15 mg single dose, read-out: AUC(0-24)): ~1950 ng·h/mL
- AUC(0-t) ([1]; 15 mg, 15 mg single dose, read-out: AUC(0-t)): ~1940 ng·h/mL
- AUC(0-inf) ([1]; 20 mg, 20 mg single dose): ~2220 ng·h/mL
- Cmax ([1]; 20 mg, 20 mg single dose): ~417 ng/mL
- Tmax ([1]; 20 mg, 20 mg single dose): ~1.17 h
- half-life ([1]; 20 mg, 20 mg single dose): ~3.58 h
- AUC(0-t) ([1]; 20 mg, 20 mg single dose, read-out: AUC(0-24)): ~2190 ng·h/mL
- AUC(0-t) ([1]; 20 mg, 20 mg single dose, read-out: AUC(0-t)): ~2190 ng·h/mL
- AUC(0-inf) ([1]; 25 mg, 25 mg single dose): ~2840 ng·h/mL
- Cmax ([1]; 25 mg, 25 mg single dose): ~491 ng/mL
- Tmax ([1]; 25 mg, 25 mg single dose): ~1.23 h
- half-life ([1]; 25 mg, 25 mg single dose): ~3.78 h
- AUC(0-t) ([1]; 25 mg, 25 mg single dose, read-out: AUC(0-24)): ~2800 ng·h/mL
- AUC(0-t) ([1]; 25 mg, 25 mg single dose, read-out: AUC(0-t)): ~2800 ng·h/mL
- dose proportionality of observed plasma levels ([1]; single-dose administration, 10 mg to 25 mg dose range): increase linearly in a dose-proportionate manner
- initial average distribution volume ([2]; after intravenous administration): about 0.18 L/Kg
- absorption from parenteral routes of injection ([2]; in vivo): completely absorbed
- average mean serum concentration ([2]; at about 1 hour): about 0.59 μM
- average mean serum concentration ([2]; at about 2 hours): about 0.44 μM
- average mean serum concentration ([2]; at about 3 hours): about 0.29 μM
